Experimental data as given in US4857507A, “Angiotensinogen analogs” (Abbott Laboratories, priority 1987, dated 1989).

Molecular target: T1, human renal renin (Homo sapiens, UniProt P00797)
T1 construct: human renal renin, free from acid proteolytic activity; from tissue; host or cells: human kidney (from the word 'renal')
T1 sequence (P00797 67-406): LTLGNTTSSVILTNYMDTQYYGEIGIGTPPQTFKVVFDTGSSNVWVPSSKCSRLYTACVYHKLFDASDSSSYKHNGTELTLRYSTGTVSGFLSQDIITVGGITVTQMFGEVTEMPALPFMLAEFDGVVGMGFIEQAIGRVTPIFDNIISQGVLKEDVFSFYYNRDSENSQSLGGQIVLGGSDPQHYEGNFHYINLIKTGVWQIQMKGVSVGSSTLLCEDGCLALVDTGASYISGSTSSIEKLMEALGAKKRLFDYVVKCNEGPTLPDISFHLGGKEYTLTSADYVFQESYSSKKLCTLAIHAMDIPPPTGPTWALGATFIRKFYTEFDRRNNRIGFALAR
Experiment: inhibition of human renal renin in vitro, angiotensin I formed measured by radioimmunoassay
Type: biochemical
Details: human renal renin with human renin substrate (angiotensinogen), 37° C., pH 6.0
Protocol: At the end of the incubation, the amount of angiotensin I formed is measured by radioimmunoassay and the molor concentration required to cause 50% inhibition, expressed as the IC50, is calculated.

Row | IC50 | Compound
1 | 5500 nM | CC(C)CCSCC[C@H](O)[C@H](CC(C)C)NC(=O)[C@H](C)NC(=O)[C@H](Cc1ccccc1)NC(=O)OC(C)(C)C [Example 17, Boc-Phe-Ala amide of (3S,4S)-4-amino-3-hydroxy-1-isoamylmercapto-6-methylheptane]
2 | 2000 nM | CC(C)C[C@H](NC(=O)C(C)NC(=O)C(Cc1ccccc1)NC(=O)OC(C)(C)C)[C@@H](O)CCOc1ccccc1 (stereo partly drawn) [Example 21, Boc-Phe-Ala amide of (3S,4S)-4-amino-3-hydroxy-6-methyl-1-phenoxyheptane]
3 | 2500 nM | CC(C)CCC(=O)CC[C@H](O)[C@H](CC(C)C)NC(=O)[C@H](C)NC(=O)[C@H](Cc1ccccc1)NC(=O)OC(C)(C)C [Example 30, Boc-Phe-Ala amide of (4S,5S)-4-amino-2,11-dimethyl-5-hydroxy-8-oxododecane]
4 | 20 nM | CC(C)C[C@H](NC(=O)[C@H](Cc1ccccc1)NC(=O)OC(C)(C)C)C(=O)N[C@@H](CC1CCCCC1)C(=O)/C(F)=C/S(=O)(=O)C(C)C [Example 96, Boc-Phe-Leu amide of (Z,4S)-3-oxo-4-amino-2-fluoro-1-isopropylsulfonyl-5-cyclohexyl-1-pentene]
5 | 1 nM | CC(C)CC(NC(=O)C(Cc1ccccc1)NC(=O)OC(C)(C)C)C(=O)N[C@@H](CC1CCCCC1)C(=O)C(F)(F)CS(=O)(=O)C(C)C (stereo partly drawn) [Example 95, Boc-Phe-Leu amide of (4S)-3-oxo-4-amino-2,2-difluoro-1-isopropylsulfonyl-5-cyclohexylpentane]
6 | 30 nM | CC(C)C[C@H](NC(=O)[C@H](Cc1ccccc1)NC(=O)OC(C)(C)C)C(=O)N[C@@H](CC1CCCCC1)[C@@H](O)C(F)(F)CN=[N+]=[N-] [Example 78, Boc-Phe-Leu amide of (3R,4S)-3-hydroxy-4-amino-2,2-difluoro-1-azido-5-cyclohexylpentane]
7 | 30 nM | CC(C)CCC(=O)NCC[C@H](O)[C@H](CC1CCCCC1)NC(=O)C(C)NC(=O)C(Cc1ccccc1)NC(=O)OC(C)(C)C (stereo partly drawn) [Example 34, Boc-Phe-Ala Amide of (3S,4S)-1-(3-Methylbutylcarbonylamino)-3-hydroxy-4-amino-5-cyclohexylpentane]
8 | 2500 nM | CC(C)CCS(=O)(=O)CC[C@H](O)[C@H](CC(C)C)NC(=O)[C@H](C)NC(=O)[C@H](Cc1ccccc1)NC(=O)OC(C)(C)C [Example 19, Boc-Phe-Ala amide of (3S,4S)-4-amino-3-hydroxy-1-isoamylsulfonyl-6-methylheptane]
9 | 25 nM | CC(C)S(=O)(=O)NCC[C@H](O)[C@H](CC1CCCCC1)NC(=O)C(Cc1cnc[nH]1)NC(=O)C(Cc1ccccc1)NC(=O)OC(C)(C)C (stereo partly drawn) [Example 50, Boc-Phe-His Amide of (3S,4S)-1-(2-propylsulfonylamino)-3-hydroxy-4-amino-5-cyclohexylpentane]
10 | 20 nM | CC(C)CCC(=O)NCC(F)(F)[C@H](O)[C@H](CC1CCCCC1)NC(=O)C(CC(C)C)NC(=O)C(Cc1ccccc1)NC(=O)OC(C)(C)C (stereo partly drawn) [Example 85, Boc-Phe-Leu amide of (3R,4S)-3-hydroxy-4-amino-2,2-difluoro-1-isopentylcarbonylamino-5-cyclohexylpentane]
11 | 15 nM | Boc-Phe-3-methyl-His Amide of (3S,4S)-1-(3-Methylbutylcarbonylamino)-3-hydroxy-4-amino-5-cyclohexylpentane [Example 52]
12 | 15 nM | CC(C)CCC(=O)NCC[C@H](O)[C@H](CC1CCCCC1)NC(=O)[C@H](Cc1cnc[nH]1)NC(=O)[C@H](Cc1ccccc1)NC(=O)OC(C)(C)C [Example 35, Boc-Phe-His Amide of (3S,4S)-1-(3-Methylbutylcarbonylamino)-3-hydroxy-4-amino-5-cyclohexylpentane]
13 | 2.5 nM | CC(C)CC(NC(=O)C(Cc1ccccc1)NC(=O)OC(C)(C)C)C(=O)N[C@@H](CC1CCCCC1)C(=O)C(F)(F)CSC(C)C (stereo partly drawn) [Example 93, Boc-Phe-Leu amide of (4S)-3-oxo-4-amino-2,2-difluoro-1-isopropylmercapto-5-cyclohexylpentane]
14 | 50 nM | CC(C)CC(NC(=O)C(Cc1ccccc1)NC(=O)OC(C)(C)C)C(=O)N[C@@H](CC1CCCCC1)[C@@H](O)C(F)=CSC(C)C (stereo partly drawn) [Example 83(B), Boc-Phe-Leu amide of (3R,4S,EZ)-3-hydroxy-4-amino-2-fluoro-1-isopropylmercapto-5-cyclohexyl-1-pentene]
15 | 4.5 nM | CC(C)CC(NC(=O)C(Cc1ccccc1)NC(=O)OC(C)(C)C)C(=O)N[C@@H](CC1CCCCC1)[C@@H](O)C(F)=CS(=O)(=O)C(C)C (stereo partly drawn) [Example 87, Boc-Phe-Leu amide of (3R,4S,EZ)-3-hydroxy-4-amino-2-fluoro-1-isopropyl-sulfonyl-5-cyclohexyl-1- pentene]
16 | 2 nM | CC(C)CCC(=O)NCC(F)(F)C(=O)[C@H](CC1CCCCC1)NC(=O)[C@H](CC(C)C)NC(=O)[C@H](Cc1ccccc1)NC(=O)OC(C)(C)C [Example 94, Boc-Phe-Leu amide of (4S)-3-oxo-4-amino-2,2-difluoro-1-isopentylcarbonylamino-5-cyclohexylpentane]
17 | 10 nM | CC(C)CCC(=O)NCC[C@H](O)[C@H](CC1CCCCC1)NC(=O)C(Cc1cscn1)NC(=O)C(Cc1ccccc1)NC(=O)OC(C)(C)C (mixture of isomers) [Example 59, Boc-Phe-dl-4-thiazolylalanine Amide of (3S,4S)-1-(3-Methylbutylcarbonylamino)-3-hydroxy-4-amino-5-cyclohexylpentane]
18 | 2000 nM | CC(C)C[C@H](NC(=O)[C@H](C)NC(=O)[C@H](Cc1ccccc1)NC(=O)OC(C)(C)C)[C@@H](O)CCS(=O)(=O)CCc1ccccc1 [Example 18, Boc-Phe-Ala amide of (3S,4S)-4-amino-3-hydroxy-6-methyl-1-phenethylsulfonylheptane]
